Assay results as given in publication PMC11845477, “Exploring the principles behind antibiotics with limited resistance” (Nature Communications, 2025).
Where a SMILES comes first, the peptide text is derived from it. Bridges are numbered along the chain shown (N, C = ends). [ ]: non-standard residue; d: D form. The star is where a group is joined. X1 = NC[C@@H](CC(=O)*)c1cccc(Cl)c1; X2 = CC[C@H](C)CCCCC(=O)*; Dab = NCC[C@H](N)C(=O)O; Dap = NC[C@H](N)C(=O)O

Columns and labels:
[1] = test system: P. aeruginosa ATCC BAA-3107 (SEN) and P. aeruginosa LESB58 (MDR); experiment: Frequency-of-resistance (FoR) assay, relative MIC of mutants; type: cell-based, Pseudomonas aeruginosa
Method: The susceptibility of antibiotics to resistance development was evaluated in two strains of each bacterial species: a multidrug-resistant strain and an antibiotic-sensitive strain of Escherichia coli, Klebsiella pneumoniae, Acinetobacter baumannii, and Pseudomonas aeruginosa. To explore first-step resistance, we previously used a standard protocol for spontaneous frequency-of-resistance analysis (FoR assay) at multiple concentrations of each antibiotic[10],[28],[31]–[33]. […] For all other combinations, approximately 10^10 bacterial cells were exposed to one of each antibiotic on agar plates for two days at concentrations where the given strain is susceptible. We examined resistance levels by contrasting the minimum inhibitory concentration (MICs) of the mutated strains to the original wild-type bacterial strain (i.e., relative MIC).
To estimate the frequency of spontaneous mutations that confer resistance in a microbial population, we conducted a frequency of resistance (FoR) assay following established protocols[10],[31]–[33]. […] Prior to plating, bacteria were grown overnight in MHB medium at 37 °C and 250 RPM, then centrifuged and washed in MHB. All experiments were performed in triplicate, and plates were incubated at 37 °C for 48 hours. Total colony-forming units (CFUs) were determined by plating appropriate dilutions onto antibiotic-free MHB agar. Resistance frequencies were calculated by dividing the number of resistant colonies by the initial viable cell count. From the plates with the highest antibiotic concentration, ten colonies were selected for MIC determination and whole-genome sequencing.
A robotic liquid handling system was used to automatically prepare a 11 to 16-step serial dilution in 384-well microtiter plates (Greiner). A final concentration of 5 × 10^5 bacterial cells per mL were inoculated into each well containing 60 µL MHB medium. Bacterial cultures were incubated at 37 °C with continuous shaking (Infors shaker, 900 rpm with 3 mm throw) for 18 hours (2 replicates from each). Cell growth was monitored by measuring the optical density (OD600 values, using Biotek Synergy microplate reader). MIC was defined as the antibiotic concentration of complete growth inhibition (i.e., OD600 < 0.05). Relative MIC was calculated as follows:1 relativeMIC=MICevolved/MICancestor […]
Supplementary Figure 3. Resistance levels following the frequency of resistance assay across bacterial strains. The level of resistance was measured as the fold change in relative MIC between evolved and ancestral strains. Data are grouped by bacterial strain (A. baumannii (AB), E. coli (EC), K. pneumoniae (KP), and P. aeruginosa (PA)) and categorized as either multidrug-resistant (MDR) or sensitive (SEN). Each data point represents a laboratory evolved line, and boxplots show the median, first and third quartiles, with whiskers indicating the 5th and 95th percentiles. […]
analysis was performed using two-sided Dunn’s post-hoc test with Benjamini-Hochberg correction for multiple comparisons (**/ * indicates p < 0.01/ 0.05). For detailed information on antibiotic and bacterial species, see Supplementary Table 1. For mode of action groups, refer to Table 1. Source data are provided as a Source Data file.

E. coli ATCC25922 = experiment: Dose-response killing curves (99.9% killing concentration, Hill coefficient); type: cell-based, Escherichia coli; conditions: dose-response killing curve; for 99.9% killing (10^-3): unit not given
Source text: Fig. 9 Killing kinetics of the studied antibiotics. a Bacterial survival rate in response to toxic antibiotic exposure. […] The bars indicate the survival rate (log10) compared to the untreated initial viable cell count (see “Methods”). Data are presented as mean values of 5 biological replicates ± SEM. The antibiotic group differentiation is denoted by color. […] Survival was estimated by measuring cell viability (colony-forming units/ml) of 2 biologically independent strains following a 4-hour exposure to different concentrations of 16 antibiotics on E. coli ATCC25922 (for further details, see “Methods”). The antibiotic concentration that kills 99.9% of the E. coli population is indicated as a vertical dotted line (see Supplementary Data 5). Error bars represent standard error calculated from the colony counts by Poisson’s model. A Hill function was fitted to the dose-response data from two biological replicates, producing sigmoidal curves (Supplementary Data 5). The Hill coefficient reflects how steeply the survival rate decreases in response to increasing antibiotic concentration ([…]). […] X-axis label colors indicate mode of action groups. For detailed information on antibiotic and bacterial species, see Supplementary Data 1. Source data are provided as a Source Data file.
To test the dose range under which resistance can evolve, we employed advanced microplating and automated image analysis. We quantified bacterial population survival at varying antibiotic concentrations[62] (see “Methods”) in E. coli. Briefly, we generated dose-response curves and investigated how steeply the killing effect increases as the antibiotic concentration rises. In specific, the Hill coefficient representing each bacterial strain-antibiotic combination was calculated to quantify dose-kill kinetics.
In this current study, the killing kinetics of each antibiotic was measured according to a previously established experimental protocol[62] with minor modifications. During this assay, the bacterial cultures were exposed to antibiotics in 96-well assay plates and their viability after 4 hours of exposure was quantified by two methods: i) microplating and colony counting or ii) fluorescent staining of cells and counting of the fluorescent units.
Specifically, these experiments were performed in the following steps: (1) Preparation of bacterial stocks. Single colonies from each strain were isolated and grown overnight in MHB medium at 37 °C, 160 rpm. In case of the fluorescently tagged E. coli strains, the medium was supplemented with 10 μg/mL chloramphenicol, to maintain the pZS2R plasmid. Overnight cultures were diluted 1:5000 and grown to an optical density at 600 nm (OD600) of 0.25. These cultures were concentrated by centrifugation and small aliquots of 50 μL containing ~2.2 × 10^9 cells were frozen in glycerol (stored at −80 °C). (2) Preparing assay plates with antibiotics. 96-well plates were filled with 235 μL MHB and supplemented with antibiotics using an automated digital dispenser (D300e, Tecan). In the case of SCH79797, we used minimal media. […] For testing the clearance efficacy of each antibiotic at a single lethal dose, the 10x of the MIC for each antibiotic-strain pair were prepared in at least three replicates. (3) Antibiotic exposure. During the dose response assay, frozen cultures of the E. coli strains expressing YFP and mCherry were thawed and mixed at a 1:1 ratio, diluted 1:1000 in 30 mL MHB and incubated for 45 min at 37 °C and 160 rpm. During the single-dose assay, the frozen cultures of experimental strains (E. coli, K. pneumoniae, A. baumannii) were also thawed and diluted 1:1000 in 30 mL MHB and incubated at 37 °C to reach an OD of 0.25 and 160 rpm.

[2] = P. aeruginosa ATCC BAA 3107 (PA-SEN), evolved line 1
[3] = P. aeruginosa ATCC BAA 3107 (PA-SEN), evolved line 2
[4] = P. aeruginosa ATCC BAA 3107 (PA-SEN), evolved line 3
[5] = P. aeruginosa LESB 58 (PA-MDR), evolved line 1
[6] = P. aeruginosa LESB 58 (PA-MDR), evolved line 1, evolved vs ancestor
[7] = P. aeruginosa LESB 58 (PA-MDR), evolved line 2
[8] = P. aeruginosa LESB 58 (PA-MDR), evolved line 2, evolved vs ancestor
[9] = P. aeruginosa LESB 58 (PA-MDR), evolved line 3
[10] = P. aeruginosa LESB 58 (PA-MDR), evolved line 3, evolved vs ancestor
[11] = P. aeruginosa ATCC BAA 3107 (PA-SEN), evolved line 1, evolved vs ancestor
[12] = P. aeruginosa ATCC BAA 3107 (PA-SEN), evolved line 2, evolved vs ancestor
[13] = P. aeruginosa ATCC BAA 3107 (PA-SEN), evolved line 3, evolved vs ancestor

Row | Compound | MIC of evolved line [1, 2] [µg/mL] | MIC of evolved line [1, 3] [µg/mL] | MIC of evolved line [1, 4] [µg/mL] | MIC of evolved line [1, 5] [µg/mL] | MIC of evolved line [1, 7] [µg/mL] | MIC of evolved line [1, 9] [µg/mL] | Relative MIC [1, 11] | Relative MIC [1, 12] | Relative MIC [1, 13] | Steepness (Hill Coefficient) (E. coli ATCC25922) | 99.9% killing (10^-3) (E. coli ATCC25922) | also measured
1 | Nc1nc(-n2cc(C(=O)O)c(=O)c3cc(F)c(N4CC(O)C4)c(Cl)c32)c(F)cc1F [Delafloxacin] | 2 | 2 | 2 | 8 | 8 | 4 | – | – | – | – | – | Relative MIC [1, 6]: 4; Relative MIC [1, 8]: 4; Relative MIC [1, 10]: 2
2 | C[C@H]1c2cccc(O)c2C(=O)C2=C(O)[C@]3(O)C(=O)C(C(N)=O)=C(O)[C@@H](N(C)C)[C@@H]3[C@@H](O)[C@@H]21 [Doxycycline] | – | – | – | – | – | – | 32 | 32 | 32 | – | – | –
3 | CN(C)[C@@H]1C(O)=C(C(N)=O)C(=O)[C@@]2(O)C(O)=C3C(=O)c4c(O)c(NC(=O)CN5CCCC5)cc(F)c4C[C@H]3C[C@@H]12 [Eravacycline] | 32 | 32 | 32 | – | – | – | 8 | 8 | 8 | – | – | –
4 | CNC(C)C1CCC(N)C(OC2C(N)CC(N)C(OC3OCC(C)(O)C(NC)C3O)C2O)O1 (stereo not drawn) [Gentamicin] | 8 | 8 | 8 | – | – | – | 8 | 8 | 8 | – | – | –
5 | O=c1ccc2ncc(=O)n3c2n1C[C@H]3CN1CCC(NCc2cc3c(cn2)OCCC3)CC1 [Gepotidacin] | 64 | 64 | 64 | 32 | 32 | 16 | 16 | 16 | 16 | – | – | Relative MIC [1, 6]: 8; Relative MIC [1, 8]: 8; Relative MIC [1, 10]: 4
6 | C[C@@H](O)[C@H]1C(=O)N2C(C(=O)O)=C(S[C@@H]3CN[C@H](C(=O)N(C)C)C3)[C@H](C)[C@H]12 [Meropenem] | 2 | 2 | 2 | 32 | 32 | 32 | – | – | – | – | – | –
7 | COc1c(N2C[C@@H]3CCCN[C@@H]3C2)c(F)cc2c(=O)c(C(=O)O)cn(C3CC3)c12 [Moxifloxacin] | 16 | 32 | 32 | – | – | – | – | – | – | – | – | –
8 | CC[C@H](C)CCCCC(=O)N[C@@H](CCN)C(=O)N[C@H](C(=O)N[C@@H](CCN)C(=O)N[C@H]1CCNC(=O)[C@H]([C@@H](C)O)NC(=O)[C@H](CCN)NC(=O)[C@H](CCN)NC(=O)[C@H](CC(C)C)NC(=O)[C@@H](Cc2ccccc2)NC(=O)[C@H](CCN)NC1=O)[C@@H](C)O [Polymyxin B] (X2-[Dab]T[Dab][Dab][Dab][dF]L[Dab][Dab]T; lactam 4-C (inferred); N-terminus assumed) | – | – | – | – | – | – | – | – | – | 46.82 | 1.08 | –
9 | CC(C)c1ccc(Cn2ccc3c4c(N)nc(NC5CC5)nc4ccc32)cc1 [SCH79797] | – | – | – | – | – | – | – | – | – | 16.39 | 4.31 | –
10 | CC(C)C[C@@H]1NC(=O)[C@@H](Cc2ccccc2)NC(=O)[C@H](CCN)NC(=O)[C@@H](NC(=O)[C@H](CN)NC(=O)[C@@H](NC(=O)C[C@H](CN)c2cccc(Cl)c2)[C@@H](C)O)CCNC(=O)[C@H]([C@@H](C)O)NC(=O)[C@H](CCN)NC(=O)[C@H](CCN)NC1=O [SPR206] (X1-T[Dap][Dab][Dab][dF]L[Dab][Dab]T; lactam 3-C (inferred); N-terminus assumed) | 1 | 1 | 1 | 128 | 64 | 64 | 1 | 1 | 1 | 59.45 | 0.18 | Relative MIC ([1]; FoR assay, Pseudomonas aeruginosa ATCC BAA 3107 (PA-SEN), evolved line 1): 1; Relative MIC ([1]; FoR assay, Pseudomonas aeruginosa ATCC BAA 3107 (PA-SEN), evolved line 2): 1; Relative MIC ([1]; FoR assay, Pseudomonas aeruginosa ATCC BAA 3107 (PA-SEN), evolved line 3): 1; Relative MIC [1, 6]: 32; Relative MIC [1, 8]: 16; Relative MIC [1, 10]: 16
11 | C[C@@H](O)[C@H]1C(=O)N2C(C(=O)O)=C(S[C@H]3CC[S@@+]([O-])C3)S[C@H]12 [Sulopenem] | – | – | – | – | – | – | – | – | – | 1.03 | 0.18 | –
12 | POL7306 | – | – | – | – | – | – | – | – | – | 43.61 | 2.31 | –
13 | Tridecaptin M152-P3 | – | – | – | – | – | – | – | – | – | 18.9 | 4.73 | –
14 | polymyxin-B | 1 | 1 | 1 | 4 | 4 | 4 | – | – | – | – | – | –
